The text below walks through data of ChEMBL document CHEMBL6103654, “Design, Biological Characterization, and Discovery of Capromorelin Derivatives as Oral Growth Hormone Secretagogue Receptor Type 1a Agonist for the Treatment of Growth Hormone Deficiency” (J Med Chem, 2025).

In data set [1] the target is Growth hormone secretagogue receptor type 1 (Rattus norvegicus, UniProt O08725). Nature of the data set: Agonist activity at rat GHSR expressed in CHO cells incubated for 60 min by FLIPR assay. Format: functional, cell-based.
Growth hormone secretagogue receptor type 1, sequence (O08725 whole entry): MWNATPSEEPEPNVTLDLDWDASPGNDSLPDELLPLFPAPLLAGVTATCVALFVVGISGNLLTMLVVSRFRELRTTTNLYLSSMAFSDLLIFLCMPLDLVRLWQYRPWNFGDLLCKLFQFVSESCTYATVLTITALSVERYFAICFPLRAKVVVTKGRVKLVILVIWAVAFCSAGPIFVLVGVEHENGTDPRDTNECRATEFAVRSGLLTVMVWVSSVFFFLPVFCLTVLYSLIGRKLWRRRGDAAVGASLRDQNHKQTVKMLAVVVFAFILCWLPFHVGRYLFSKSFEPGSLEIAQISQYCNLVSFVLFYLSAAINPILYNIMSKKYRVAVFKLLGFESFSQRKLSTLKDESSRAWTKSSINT
Data set [2] concerns CHO. Nature of the data set: Agonist activity at monkey GHSR expressed in CHO cells at maximum concentration incubated for 60 min by FLIPR assay relative to control. In kind it is cell-based. Particulars: Macaca mulatta, filed as agonist.
A short description of data set [3]: Agonist activity at monkey GHSR expressed in CHO cells incubated for 60 min by FLIPR assay. Format: cell-based. Particulars: Macaca mulatta, 1 h.
The nature of data set [4]: Agonist activity at human GHSR expressed in CHO cells incubated for 60 min by FLIPR assay. In kind it is cell-based. The note with it: 1 h.
Data set [5] relates to CHO. In words: Agonist activity at human GHSR expressed in CHO cells at maximum concentration incubated for 60 min by FLIPR assay relative to control. In kind it is cell-based.
In data set [6] the target is Growth hormone secretagogue receptor type 1 (Rattus norvegicus) (UniProt O08725). Nature of the data set: Agonist activity at rat GHSR expressed in CHO cells at maximum concentration incubated for 60 min by FLIPR assay relative to control. In kind it is functional, cell-based. Particulars: filed as agonist.
Growth hormone secretagogue receptor type 1 (Rattus norvegicus), sequence (O08725 whole entry): as above
A short description of data set [7]: Agonist activity at dog GHSR expressed in CHO cells incubated for 60 min by FLIPR assay. In kind it is cell-based. Particulars: 1 h.
The test system of data set [8] is CHO. In words: Agonist activity at dog GHSR expressed in CHO cells at maximum concentration incubated for 60 min by FLIPR assay relative to control. Format: cell-based. The note with it: Canis lupus familiaris, filed as agonist.
Data set [9] is described as follows: Clearance in male Sprague-Dawley rat plasma at 1 mg/kg, iv administered as single dose measured after 4 hrs. In kind it is ADME, organism-based.
Data set [10] can be described thus: Elimination half life in male Sprague-Dawley rat at 1 mg/kg, iv administered as single dose measured after 4 hrs. Format: ADME, organism-based. The note with it: in vivo, read-out: beta t1/2 (converted).
The nature of data set [11]: Tmax in male Sprague-Dawley rat at 2 mg/kg, po administered as single dose measured after 4 hrs. Format: ADME, organism-based. The note with it: in vivo.
Data set [12] in a line: Oral bioavailability in male Sprague-Dawley rat at 2 mg/kg administered as single dose measured after 4 hrs. Format: ADME, organism-based. The note with it: in vivo.
Data set [13] in a line: Volume of distribution in male Sprague-Dawley rat at 1 mg/kg, iv administered as single dose measured after 4 hrs. In kind it is ADME, organism-based. The note with it: in vivo.
A short description of data set [14]: Cmax in male Sprague-Dawley rat at 2 mg/kg, po administered as single dose measured after 4 hrs. The note with it: in vivo. In kind it is ADME, organism-based.
Data set [15] can be described thus: Elimination half life in male Sprague-Dawley rat at 2 mg/kg, po administered as single dose measured after 4 hrs. In kind it is ADME, organism-based. The note with it: in vivo, read-out: beta t1/2 (converted).
Data set [16] can be described thus: AUC in male Sprague-Dawley rat at 2 mg/kg, po administered as single dose measured after 4 hrs. Format: ADME, organism-based. Particulars: in vivo.

As a reminder, the EC50 is the concentration needed to bring the measured effect to its halfway point. For the molecule `CN1N=C2CCN(C(=O)[C@@H](COCc3ccccc3)NC(=O)C(C)(C)N)C[C@@]2(Cc2ccccc2)C1=O` [CAPROMORELIN], the 50% effective concentration (EC50) is 0.017 nM in data set [1], 0.074 nM in data set [3], 1.37 nM in data set [4] and 0.118 nM in data set [7]. Also, the Activity worked out at 109% in the data set on CHO [2], 119% in the data set on CHO [5] (filed as agonist), 111% in data set [6] and 155% in the data set with CHO [8].

One may read the clearance as the volume of plasma or blood freed of the substance per unit of time. What is called Tmax is the time from dosing to the highest level. Usually bioavailability stands for the share of a dose that reaches the circulation, judged against a reference dose that is usually intravenous. A word on the Vd: it is a proportionality between amount in the body and measured concentration, not a real space. Usually Cmax stands for the peak of the concentration-time curve. The term AUC denotes concentration integrated over time. In data set [9], `CC(C)(N)C(=O)N[C@H](COCc1ccccc1)C(=O)N1CCC2=NN(C3CCC3)C(=O)[C@]2(Cc2ccccc2)C1` registered a clearance of 50.5 mL/min/kg. Further, the half-life in [10] is 0.8 h; in data set [15] it was 1.82 h. The EC50 in data set [1] amounted to 0.014 nM; in [3], 0.02 nM; in [4], 1.19 nM; in data set [7] it was 0.048 nM. Moreover, the Activity with CHO [2] is 104%; with CHO [5] (filed as agonist), 107%; in [6], 104%; with CHO [8], 125%. The Tmax in data set [11] came to 0.5 h. This molecule also showed a bioavailability in data set [12] of 3.3%. Also, in data set [13], the Vd was determined as 3.5 L/kg. The same molecule registered a Cmax in data set [14] of 8.4 ng/mL. Moreover, in data set [16], the AUC at 4 h came out at 21.1 ng·h/mL.

Take `CC(C)(N)C(=O)N[C@H](COCc1ccccc1)C(=O)N1CCC2=NN(C3CCCCC3)C(=O)[C@]2(Cc2ccccc2)C1`: the EC50 in data set [4] came out at 2.63 nM. The molecule also came in with an Activity with CHO [5] (filed as agonist) of 137%.

In turn, `Cn1nc2c(c1-c1ccccc1)CN(C(=O)[C@@H](COCc1ccccc1)NC(=O)C(C)(C)N)CC2` came in with an EC50 in [4] of 72.4 nM. In addition, the Activity in the data set on CHO [5] (filed as agonist) was determined as 72%.

Regarding `CC(C)(N)C(=O)N[C@H](COCc1ccccc1)C(=O)N1CCC2=NN(CC3CC3)C(=O)[C@]2(Cc2ccccc2)C1`, the EC50 came out at 0.009 nM in data set [1], 0.034 nM in data set [3], 0.89 nM in data set [4] and 0.043 nM in data set [7]. The Activity amounted to 104% in the data set on CHO [2], 134% in the data set with CHO [5] (filed as agonist), 97.1% in data set [6] and 120% with CHO [8].

In data set [9], `CC(C)(N)C(=O)N[C@H](COCc1ccccc1)C(=O)N1CCC2=NN(C(F)(F)F)C(=O)[C@]2(Cc2ccccc2)C1` gave a clearance of 70.9 mL/min/kg. In addition, the half-life was 2.96 h in [10] and 1.2 h in data set [15]. The EC50 in [1] was 0.012 nM; in [3], 0.062 nM; in data set [4] it was 0.58 nM; in data set [7], 0.077 nM. The Activity with CHO [2] was 103%; in the data set with CHO [5] (filed as agonist), 106%; in [6], 96%; in the data set on CHO [8] it was 115%. Besides, the Tmax in data set [11] was 0.33 h. This molecule yielded a bioavailability in [12] of 44.8%. Also, in data set [13], the Vd amounted to 16.1 L/kg. The highest level in [14] (Cmax) was 219 ng/mL. Further, the AUC at 4 h in [16] was 214 ng·h/mL.

In turn, `CN1N=C2C(C)(C)CN(C(=O)[C@@H](COCc3ccccc3)NC(=O)C(C)(C)N)C[C@@]2(Cc2ccccc2)C1=O` registered an EC50 in [4] of 63.7 nM. In the data set with CHO [5] (filed as agonist), this molecule returned an Activity of 82.2%.

For `CN1N=C2CCN(C(=O)[C@@H](COCc3ccccc3)NC(=O)C3CCNCC3)C[C@@]2(Cc2ccccc2)C1=O`, the EC50 in [1] was 39.3 nM; in data set [3], 102 nM; in data set [4], above 1000 nM; in data set [7], 143 nM. Moreover, the Activity in the data set with CHO [2] turned out to be 94.9%; in the data set with CHO [5], 30.5%; in [6], 106%; in the data set on CHO [8] it was 91.6%.

`CN1N=C2C3(CC3)CN(C(=O)[C@@H](COCc3ccccc3)NC(=O)C(C)(C)N)C[C@@]2(Cc2ccccc2)C1=O` came in with an EC50 in [4] of 29.8 nM. In addition, the Activity in the data set on CHO [5] (filed as agonist) is 82.1%.

For `CN1N=C2CC3CCC(N3C(=O)[C@@H](COCc3ccccc3)NC(=O)C(C)(C)N)[C@@]2(Cc2ccccc2)C1=O` (stereo partly drawn), it took 10.4 nM to reach a half-maximal effect in data set [4] (EC50). In addition, the Activity in the data set on CHO [5] (filed as agonist) turned out to be 104%.

In the case of `CC(C)(N)C(=O)N[C@H](COCc1ccccc1)C(=O)N1CCC2=NN(C(C)(C)C)C(=O)[C@]2(Cc2ccccc2)C1`, the EC50 in data set [1] worked out at 0.016 nM; in [3] it was 0.044 nM; in [4], 1.34 nM; in data set [7], 0.071 nM. For the same molecule, the Activity worked out at 99.3% with CHO [2], 143% in the data set on CHO [5] (filed as agonist), 112% in [6] and 123% with CHO [8].

On to `CC1N(C(=O)[C@@H](COCc2ccccc2)NC(=O)C(C)(C)N)CCC2=NN(C)C(=O)[C@@]21Cc1ccccc1` (stereo partly drawn), for which, in data set [4], the EC50 is 160 nM. In addition, the Activity in the data set on CHO [5] (filed as agonist) was 97.4%.

On to `CC(C)(N)C(=O)N[C@H](COCc1ccccc1)C(=O)N1CC(C)(C)C2=NNC(=O)[C@]2(Cc2ccccc2)C1`, for which the EC50 in data set [4] stood at 53.3 nM. In addition, the Activity in the data set on CHO [5] turned out to be 25.4%.

In [9], `CC(C)(N)C(=O)N[C@H](COCc1ccccc1)C(=O)N1CCC2=NOC(=O)[C@]2(Cc2ccccc2)C1` came in with a clearance of 169 mL/min/kg. Further, the half-life in data set [10] was 1.44 h. Besides, it took 0.87 nM to reach a half-maximal effect in data set [4] (EC50). This molecule returned an Activity in the data set with CHO [5] (filed as agonist) of 106%. Besides, the Tmax in [11] is 0.25 h. Moreover, the Vd in data set [13] stood at 22.8 L/kg. The same molecule came in with a Cmax in data set [14] of 54 ng/mL.

In the case of `CC(C)(N)C(=O)N[C@H](COCc1ccccc1)C(=O)N1CCC2=NN(C3CCCC3)C(=O)[C@]2(Cc2ccccc2)C1`, the EC50 in data set [1] is 0.021 nM; in [3], 0.051 nM; in data set [4], 0.58 nM; in data set [7], 0.105 nM. Further, the Activity in the data set on CHO [2] stood at 110%; in the data set with CHO [5] (filed as agonist), 121%; in [6] it was 97.2%; in the data set with CHO [8], 117%.

`CC(C)(N)C(=O)N[C@H](COCc1ccccc1)C(=O)N1CCc2ccn(Cc3ccccc3)c2C1` showed an EC50 in data set [4] of 735 nM. In the data set with CHO [5] (filed as agonist), the Activity stood at 47.6%.

In turn, `CC(C)(N)C(=O)N[C@H](COCc1ccccc1)C(=O)N1C2CCC1[C@@]1(Cc3ccccc3)C(=O)NN=C1C2` (stereo partly drawn) came in with an EC50 in data set [4] of 447 nM. The same molecule registered an Activity in the data set on CHO [5] (filed as agonist) of 41.7%.

`Cn1nc2c(c1-c1ccccc1)CCN(C(=O)[C@@H](COCc1ccccc1)NC(=O)C(C)(C)N)C2` displayed an EC50 in [4] above 1000 nM. The same molecule had an Activity in the data set with CHO [5] of 18.2%.

Turning to `CC(C)(N)C(=O)N[C@H](COCc1ccccc1)C(=O)N1CCC2=NN(C(F)F)C(=O)[C@]2(Cc2ccccc2)C1`, the EC50 in [4] was above 1000 nM. The molecule also registered an Activity with CHO [5] of 11%.

`CC(C)(N)C(=O)N[C@H](COCc1ccccc1)C(=O)N1CCC2=NN(C3COC3)C(=O)[C@]2(Cc2ccccc2)C1` had an EC50 in data set [4] of 14.7 nM. This molecule also showed an Activity in the data set on CHO [5] (filed as agonist) of 99.2%.
